The target in test [1] is bacterial PDF (peptide deformylase), enzyme from E. coli (Escherichia coli, UniProt P0A6K3). Nature of the test: Bacterial peptide deformylase (PDF) assay, enzyme from E. coli. The class given is biochemical. The protocol:
(§1) The IC50 value of a compound of the invention as a bacterial PDF inhibitor was determined using the following assay.
(§2) Assay buffer (pH 7.2): 0.1 M MOPS pH was adjusted to 7.2 with NaOH, containing 0.25 M NaCl, 100 microgram/mL catalase and 1 mg/mL BSA.
(§3) Enzyme mix: 670 ng/mL of enzyme (to finally have 50 ng of enzyme per well).
(§4) Substrate: 10 mM f-Met-Ala was made up from 200 mM f-Met-Ala in methanol with assay buffer.
(§5) TNBS solution: Freshly dilute 1 M TNBS stock solution to 1:10 with water.
(§6) Buffer C: 0.5 M borate buffer adjusted to pH 9.5 with NaOH.
(§7) Buffer D: 0.2 ml of freshly prepared 0.5 M Na2SO3 was mixed with 9.8 mL of 0.5M NaH2PO4.
(§8) Inhibitor solution: 2 mM Sodium 4-(hydroxymercurio) benzoate in assay buffer.
(§9) The assay was performed in a 96 Microtiter plate containing test compound. To each well containing test compound mix was added 75 microliter of enzyme mix from E. coli followed, by the addition of 25 microliter of substrate mix. The resulting mix was incubated for 30 minutes at room temperature with shaking. TNBS solution (50 microliter/well) was added and the resulting mixture was incubated for 15 minutes under shaking. Buffer C was then added (20 microliter/well). After incubating at room temperature for 15 minutes under shaking, buffer D was added (50 microliter/well). The optical […] was then measured at 420 nm, thereby determining the IC50 value.

Test [2] has as its target T1, bacterial PDF (peptide deformylase), enzyme from S. aureus (Staphylococcus aureus, UniProt P68826).
T1 sequence (P68826 1-183): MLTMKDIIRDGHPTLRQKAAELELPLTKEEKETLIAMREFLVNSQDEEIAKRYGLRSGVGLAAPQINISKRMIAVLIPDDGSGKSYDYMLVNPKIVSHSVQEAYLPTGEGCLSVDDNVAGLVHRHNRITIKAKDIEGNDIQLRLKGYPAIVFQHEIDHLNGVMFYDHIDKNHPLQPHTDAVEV
Nature of the test: Bacterial peptide deformylase (PDF) assay, enzyme from S. aureus. Type of test: biochemical. To be noted: PDF enzyme from S. aureus; substrate f-Met-Ala; TNBS readout at 420 nm; read-out: IC50 (enzyme from S. aureus). The protocol:
as §1, §2, §3, §4, §5, §6, §7, §8, §9
The assay was repeated using enzyme mix from S. aureus.

In patent US20090093468A1, “Peptide Deformylase Inhibitors” (priority 2004, published 2009) one finds IC50 data, which are given here for 22 compounds.

bacterial PDF (peptide deformylase), enzyme from E. coli, sequence (P0A6K3 whole entry): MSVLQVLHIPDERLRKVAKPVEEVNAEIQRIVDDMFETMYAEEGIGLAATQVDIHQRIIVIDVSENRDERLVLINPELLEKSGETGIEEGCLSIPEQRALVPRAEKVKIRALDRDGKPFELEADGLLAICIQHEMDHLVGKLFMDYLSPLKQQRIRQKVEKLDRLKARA

For orientation: IC50 means the midpoint of a concentration-inhibition curve. Regarding `CCCN1CC(CC(=O)NO)Sc2ccccc21` (stereo not shown) [Example 5, N-Hydroxy-2-(4-propyl-3,4-dihydro-2H-benzo[1,4]thiazin-2-yl)-acetamide], the IC50 in test [1] was found to be 7 µM; in test [2] it was 8.5 µM.

For `O=C(CC1CNc2ccccc2S1)NO` (stereo not shown) [Example 1, 2-(3,4-Dihydro-2H-benzo[1,4]thiazin-2-yl)-N-hydroxy-acetamide], the IC50 in test [1] came to 56.7 µM; in test [2], 37.6 µM. The matching figures for `CCN1CC(CC(=O)NO)S(=O)(=O)c2ccc(C(=O)Nc3nccs3)cc21` (stereo not shown) [Example 31, 4-Ethyl-2-hydroxycarbamoylmethyl-1,1-dioxo-1,2,3,4-tetrahydro-1λ^6-benzo[1,4]thiazine-6-carboxylic acid thiazol-2-ylamide]: 12.3 µM and 20.8 µM. As for `O=C(CC1CN(Cc2ccccc2)c2ccccc2S1(=O)=O)NO` (stereo not shown) [Example 9, 2-(4-Benzyl-1,1-dioxo-1,2,3,4-tetrahydro-1λ^6-benzo[1,4]thiazin-2-yl)-N-hydroxy-acetamide], the results for the half-maximal inhibitory concentration (IC50) in test [1] and in test [2] were 21.2 µM and 21.4 µM, respectively. `O=C(CC1CN(CC2CCCCC2)c2ccccc2S1(=O)=O)NO` (stereo not shown) [Example 38, 2-(4-Cyclohexylmethyl-1,1-dioxo-1,2,3,4-tetrahydro-1λ^6-benzo[1,4]thiazin-2-yl)-N-hydroxy-acetamide]: the results for the concentration for half-maximal inhibition (IC50) in test [1] and in test [2] were 33.2 µM and 18.1 µM, respectively.

Regarding `CCN1CC(CC(=O)NO)S(=O)(=O)c2ccc(C(=O)NCc3ccc(F)cc3)cc21` (stereo not shown) [Example 14, 4-Ethyl-2-hydroxycarbamoylmethyl-1,1-dioxo-1,2,3,4-tetrahydro-1λ^6-benzo[1,4]thiazine-6-carboxylic acid 4-fluoro-benzylamide], the IC50 in test [1] amounted to 10.5 µM; in test [2], 10 µM. The matching figures for `CCN1CC(CC(=O)NO)S(=O)(=O)c2ccc(C(=O)NCc3cccs3)cc21` (stereo not shown) [Example 29, 4-Ethyl-2-hydroxycarbamoylmethyl-1,1-dioxo-1,2,3,4-tetrahydro-1λ^6-benzo[1,4]thiazine-6-carboxylic acid (thiophen-2-ylmethyl)-amide]: 9.5 µM and 3.4 µM. In the same order, the values of `CCN1CC(CC(=O)NO)S(=O)(=O)c2ccc(C(=O)N3CCN(C)CC3)cc21` (stereo not shown) [Example 32, 2-[4-Ethyl-6-(4-methyl-piperazine-1-carbonyl)-1,1-dioxo-1,2,3,4-tetrahydro-1λ^6-benzo[1,4]thiazin-2-yl]-N-hydroxy-acetamide] are more than 200 µM and 128 µM.

For `CCN1CC(CC(=O)NO)S(=O)(=O)c2ccc(C(=O)NCc3cccc([N+](=O)[O-])c3)cc21` (stereo not shown) [Example 19, 4-Ethyl-2-hydroxycarbamoylmethyl-1,1-dioxo-1,2,3,4-tetrahydro-1λ^6-benzo[1,4]thiazine-6-carboxylic acid 3-nitro-benzylamide], the IC50 in test [1] was found to be 3.3 µM; in test [2], 11.9 µM. As for `CCN1CC(CC(=O)NO)S(=O)(=O)c2ccc(C(=O)Nc3cc[nH]n3)cc21` (stereo not shown) [Example 30, 4-Ethyl-2-hydroxycarbamoylmethyl-1,1-dioxo-1,2,3,4-tetrahydro-1λ^6-benzo[1,4]thiazine-6-carboxylic acid (1H-pyrazol-3-yl)-amide], the IC50 in test [1] is 11.5 µM; in test [2], 30.8 µM. The matching figures for `CCN1CC(CC(=O)NO)S(=O)(=O)c2ccc(C(=O)Nc3cc(-c4cccs4)n[nH]3)cc21` (stereo not shown) [Example 33, 4-Ethyl-2-hydroxycarbamoylmethyl-1,1-dioxo-1,2,3,4-tetrahydro-1λ^6-benzo[1,4]thiazine-6-carboxylic acid (5-thiophen-2-yl-2H-pyrazol-3-yl)-amide]: 0.9 µM and 3 µM. The matching figures for `O=C(CC1CN(CC2CCCC2)c2ccccc2S1(=O)=O)NO` (stereo not shown) [Example 37, 2-(4-Cyclopentylmethyl-1,1-dioxo-1,2,3,4-tetrahydro-1λ^6-benzo[1,4]thiazin-2-yl)-N-hydroxy-acetamide]: 11.1 µM and 13.9 µM. In the same order, the values of `CCCN1CC(CC(=O)NO)S(=O)(=O)c2ccccc21` (stereo not shown) [Example 6, 2-(1,1-Dioxo-4-propyl-1,2,3,4-tetrahydro-1λ^6-benzo[1,4]thiazin-2-yl)-N-hydroxy-acetamide] are 1.6 µM and 1.9 µM. On to `O=C(CC1CN(Cc2cccc(F)c2)c2ccccc2S1(=O)=O)NO` (stereo not shown) [Example 10, 2-[4-(3-Fluoro-benzyl)-1,1-dioxo-1,2,3,4-tetrahydro-1λ^6-benzo[1,4]thiazin-2-yl]-N-hydroxy-acetamide], for which the values for the IC50 in test [1] and in test [2] were 27.7 µM and 28.4 µM, respectively. In the same order, the values of `O=C(CC1CNc2ccccc2S1(=O)=O)NO` (stereo not shown) [Example 2, 2-(1,1-Dioxo-1,2,3,4-tetrahydro-1λ^6-benzo[1,4]thiazin-2-yl)-N-hydroxy-acetamide] are 3.4 µM and 1.5 µM. In the same order, the values of `CCN1CC(CC(=O)NO)S(=O)(=O)c2ccccc21` (stereo not shown) [Example 4, 2-(4-Ethyl-1,1-dioxo-1,2,3,4-tetrahydro-1λ^6-benzo[1,4]thiazin-2-yl)-N-hydroxy-acetamide] are 1.4 µM and 2 µM.

`CCN1CC(CC(=O)NO)S(=O)(=O)c2ccc(C(=O)NCc3ccccc3F)cc21` (stereo not shown) [Example 12, 4-Ethyl-2-hydroxycarbamoylmethyl-1,1-dioxo-1,2,3,4-tetrahydro-1λ^6-benzo[1,4]thiazine-6-carboxylic acid 2-fluoro-benzylamide]: the IC50 worked out at 10.8 µM in test [1] and 36.8 µM in test [2]. Regarding `CCN1CC(CC(=O)NO)S(=O)(=O)c2ccc(C(=O)NCc3ccc(C(F)(F)F)cc3)cc21` (stereo not shown) [Example 25, 4-Ethyl-2-hydroxycarbamoylmethyl-1,1-dioxo-1,2,3,4-tetrahydro-1λ^6-benzo[1,4]thiazine-6-carboxylic acid 4-trifluoromethyl-benzylamide], the IC50 in test [2] is 4.2 µM. Take `CCN1CC(CC(=O)NO)S(=O)(=O)c2ccc(C(=O)NCc3cccc(OC)c3)cc21` (stereo not shown) [Example 22, 4-Ethyl-2-hydroxycarbamoylmethyl-1,1-dioxo-1,2,3,4-tetrahydro-1λ^6-benzo[1,4]thiazine-6-carboxylic acid 3-methoxy-benzylamide]: the 50% inhibitory concentration (IC50) in test [1] came out at 1 µM; in test [2] it was 2.3 µM. As for `O=C(CC1CN(CC2CC2)c2ccccc2S1(=O)=O)NO` (stereo not shown) [Example 35], the IC50 was found to be 2.1 µM in test [1] and 4.8 µM in test [2]. The matching figures for `CCN1CC(CC(=O)NO)S(=O)(=O)c2ccc(C(=O)NCc3ccc([N+](=O)[O-])cc3)cc21` (stereo not shown) [Example 20, 4-Ethyl-2-hydroxycarbamoylmethyl-1,1-dioxo-1,2,3,4-tetrahydro-1λ^6-benzo[1,4]thiazine-6-carboxylic acid 4-nitro-benzylamide]: 1.2 µM and 3.9 µM.

Consider `CCN1CC(CC(=O)NO)S(=O)(=O)c2ccc(C(=O)NCc3ccccc3)cc21` (stereo not shown) [Example 11, 4-Ethyl-2-hydroxycarbamoylmethyl-1,1-dioxo-1,2,3,4-tetrahydro-1λ^6-benzo[1,4]thiazine-6-carboxylic acid benzylamide], for which the values for the half-inhibitory concentration (IC50) in test [1] and in test [2] were 17.6 µM and 8.9 µM, respectively.
